Measurements from patent publication US20240216410A1, “METHODS AND COMPOSITIONS FOR TREATING CANCER THERAPY-INDUCED NEUTROPENIC FEVER AND/OR GVHD” (BOARD OF REGENTS, THE UNIVERSITY OF TEXAS SYSTEM, priority 2021, published 2024).
Where two headings read alike, the source gives them in different places.

What was measured:
[1] = system: Akkermansia; experiment: Dietary restriction in mice with narrow-spectrum antibiotics in the drinking water; format: in vivo; settings: antibiotic in drinking water from 5 days prior to dietary restriction
Source text: Diet is a major determinant of intestinal microbiome composition, and the indirect impact of RT on microbiome composition due to a reduction in intake of food in mice was investigated. Mice were individually housed in metabolic cages following RT to quantify effects of RT on food and water intake. Within 2 days following RT, mice had reduced their oral intake to approximately 2 grams a day, or a 50% reduction (FIG. 3A). To evaluate whether dietary restriction (DR) could impact intestinal microbiome composition and the colonic mucus layer, normal, un-irradiated mice were limited 2 grams of chow per mouse per day for 7 days.
Because commercially-available mice lacking Akkermansia are not easy to find (12), narrow-spectrum antibiotics were used to evaluate the specific contribution of Akkermansia to mucus thinning during DR.

[2] = system: Akkermansia; experiment: Total body radiotherapy (9 Gy RT) mice treated with azithromycin or propionate; format: in vivo; settings: for colonic mucus layer thickness: 9 Gy total body RT; for colonic tissue levels of IL-1b, CCL2, CCL7, IL-22, CXCL1 and CXCL10 / ocular surface temperatures (hypothermia) / outgrowth of Akkermansia: day 6 after RT; for outgrowth of Akkermansia: 16S rRNA gene sequencing
Description: C57BL/6 mice were exposed to a single myeloablative dose of total body radiotherapy (9 Gy RT), and stool samples were evaluated 6 days later by 16S rRNA gene sequencing. […] Colonic tissue samples were cut cross-sectionally and mucus layer thickness was averaged across 8 equally-spaced circumferential sites (FIG. 7) to evaluate whether the dense colonic mucus layer, which normally separates bacteria-rich luminal contents from the colonic epithelium, was affected by irradiation in mice.
Additionally, ocular surface temperatures were non-invasively measured in mice using a published method (16) because in contrast to humans, mice are develop hypothermia in response to exposure to inflammatory ligands such as LPS (17) and in models of sepsis (18).
The degree of inflammation in colonic tissue was directed measured by quantifying levels of a panel of cytokines (FIG. 5C).

[3] = system: BT (MDA-JAX BT001); experiment: Mucin degradation assay of BT in porcine gastric mucin medium with monosaccharides; format: cell-based, Bacteroides thetaiotaomicron; settings: monosaccharide added at 15 hours, further 3 hours
Description: (§1) To examine the effects of the presence of monosaccharides on mucin utilization by BT, BT was cultivated in bacterial media containing porcine gastric mucin, a panel of monosaccharides was subsequently added, including arabinose and xylose, and levels of remaining mucin were quantified using a colorimetric assay (FIG. 18C). In the absence of additional monosaccharides, BT readily metabolized porcine gastric mucin.
Bacteria were cultured up to 48 hours at a starting concentration of 1×10^6 bacteria/ml in BYEM10 broth (pH 7.2) with and without 5 mg/ml of porcine gastric mucin (M1778, Sigma-Aldrich). Optical densities (OD600 nm) of bacterial cultures were measured with a BioTek EPOCH™ 2 plate reader.
Mucin degradation assay. Levels of mucin glycans in culture supernatants were determined by a PAS-based colorimetric assay as previously described (67) with minor modifications. Briefly, culture supernatants were centrifuged at 20,000 g, 4° C. for 10 minutes and collected. To perform mucin precipitation, 500 μL of culture supernatants were mixed with 1 mL of molecular grade ethanol and incubated at −30° C. overnight. Culture supernatants were centrifuged at 20,000 g, 4° C. for 10 minutes. Mucin-containing pellets were washed with 1 mL of molecular grade ethanol twice and resuspended in 500 μL of PBS. […] Absorbance was measured at 550 nm using a BioTek SYNERGY™ HTX plate reader.

[4] = system: murine BT GH2 β-galactosidase, GH33 sialidase, GH29 α-L-fucosidase; experiment: Quantitative real-time PCR of GH2, GH29 and GH33 BT loci; format: cell-based, Bacteroides thetaiotaomicron; settings: BT cultured with or without monosaccharides
Source text: as §1
Quantitative real-time PCR analysis of BT loci. Total RNA was isolated from in vitro cultured BT as described above. The cDNA was synthesized using a High-Capacity cDNA Reverse Transcription Kit (4368814, APPLIED BIOSYSTEMS™). The mRNA levels of selected targets were quantified by qPCR using KAPA SYBR® FAST Master Mix (Roche) and specific probes (GH2, 5′-[…]-3′ (SEQ ID NO:4) for the forward primer, 5′-[…]-3′ (SEQ ID NO:5) for the reverse primer; GH29, 5′-[…]-3′ (SEQ ID NO:6) for the forward primer, 5′-[…]-3′ (SEQ ID NO:7) for the reverse primer; GH33, 5′-[…]-3′ (SEQ ID NO:8) for the forward primer, 5′-[…]-3′ (SEQ ID NO:9) for the reverse primer) and were normalized to BT specific probes (5′-[…]-3′ (SEQ ID NO:10) for the forward primer, 5′-[…]-3′ (SEQ ID NO:11) for the reverse primer) (75).

[5] = system: colonic mucus layer; experiment: Murine GVHD model: colonic mucus layer thickness (PAS staining); format: in vivo, mice; settings: day 20; xylose days 13 to 20 vs GVHD mice receiving meropenem alone
Description: Next, assessed was the impact of meropenem treatment on the dense colonic mucus layer of mice with GVHD.
Allo-HSCT recipient mice were treated with meropenem as in FIG. 15A and with xylose from days 13 to 20 (FIG. 18F). […] Importantly, in vitro, growth of mouse and human-derived BT in carbohydrate-poor media was augmented by xylose (FIG. 23B).
Xylose administration. D-(+)-xylose (X3877, SIGMA-ALDRICH®) was dissolved in phosphate buffer pH 8.0 with meropenem or in water without meropenem and given at a concentration of 0.5% from days 13 to 20 after allo-HSCT.
Histological and immunohistochemistry analysis. […] Pathology scores were quantified by a blinded pathologist. […] Sections were imaged using an APERIO® AT2.

[6] = system: mouse and human-derived BT; experiment: Growth of BT in carbohydrate-poor media with monosaccharide; format: cell-based, Bacteroides thetaiotaomicron; settings: OD600 nm up to 30 hours
Description: Allo-HSCT recipient mice were treated with meropenem as in FIG. 15A and with xylose from days 13 to 20 (FIG. 18F). […] Importantly, in vitro, growth of mouse and human-derived BT in carbohydrate-poor media was augmented by xylose (FIG. 23B). […] Bacteria were cultured up to 48 hours at a starting concentration of 1×10^6 bacteria/ml in BYEM10 broth (pH 7.2) with and without 5 mg/ml of porcine gastric mucin ([…], Sigma-Aldrich). Optical densities (OD600 nm) of bacterial cultures were measured with a BioTek EPOCHTM 2 plate reader.

[7] = system: intestinal microbiota; experiment: Murine GVHD model: fecal microbiome composition (16S rRNA sequencing) and bacterial density (qPCR); format: in vivo, mice; settings: day 20; meropenem-treated mice with or without oral xylose 0.5% days 13 to 20
Description: Effects of meropenem treatment on the composition of the intestinal microbiota of allo-HSCT mice were also examined (FIG. 15F).
Sequencing of 16S rRNA gene amplicons. Fecal samples from patients and mice were weighed before DNA isolation. In brief, genomic DNA was isolated using the QIAAMP® DNA mini kit (51306, QIAGEN®) according to the manufacturer's protocol that was modified to include an intensive bead-beating lysis step. The V4 region of 16S rRNA gene was amplified by PCR from 100 ng of each of extracted and purified genomic DNA using 515 forward and 806 reverse primer pairs (59). The quality and quantity of the barcoded amplicons were assessed on an Agilent 4200 TapeStation system (Agilent) and QUBIT™ Fluorometer (THERMO FISHER […]™), and libraries were prepared after pooling at equimolar ratios. The final libraries were purified using […]® gel extraction kit (28706X4, QIAGEN®) and sequenced with a 2×250 base pair paired-end protocol on the […]® MISEQ™ platform.
Microbiome data analysis. Sequencing data from paired-end reads were de-multiplexed using QIIME 2 (60). Merging of paired-end reads, dereplicating, and length filtering was performed using VSEARCH 2.17.1 (61). Following de-noising and chimera calling using the unoise3 command (62), unique sequences were taxonomically classified with mothur (63) using the Silva database (64) version 138. Weighted UniFrac distances (65) were determined using QIIME 2, visualized using principal coordinate analysis, and evaluated for statistical significance using permutational multivariate analysis of variance (PERMANOVA) testing. For differential abundance analysis, abundances of sequences belonging to taxonomical groups were included for analysis using the Mann-Whitney U test and adjusted for multiple comparisons using the method of Benjamini and Hochberg. Paired samples were analyzed using the Wilcoxon signed rank test with adjustment for multiple comparisons.
Quantification of fecal bacterial density. Genomic DNA was isolated from stool as described above. qPCR was performed as previously described (66). In brief, 16S rRNA gene sequences were amplified from total fecal DNA using the primers 926F (5′-[…]-3′, where K is a G or a T; SEQ ID NO:2) and 1062R (5′-[…]-3′, where R is an A or a G; SEQ ID NO:3). Real-time PCR were carried out in 96-well optical plates on QUANTSTUDIO™ Flex 6 RT PCR (APPLIED BIOSYSTEMS™) and KAPA SYBR® FAST Master Mix (Roche). The PCR conditions included one initial denaturing step of 10 min at 95° C. and 40 cycles of 95° C. for 20 sec and 60 °C for 1 min. Melting-curve analysis was performed after amplification. To determined bacterial density, a plasmid with a 16S rRNA gene of a murine Blautia isolate was generated in the pCR4 backbone and used as a standard.

[8] = system: A. muciniphila (MDA-JAX AM001); settings: for mucin glycan utilization by A. muciniphila: physiological concentrations, varying pH, 48 hours of culture
Description: The impact of DR-induced metabolic changes in the colonic lumen on A. muciniphila behavior was also studied using an in vitro mucin glycan consumption assay. A novel A. muciniphila (MDA-JAX AM001) strain was isolated from the feces of C57BL6 mice and introduced to liquid media supplemented with PGM, and the effects of varying pH either alone or combined with the presence of physiological concentrations of acetate, propionate, and butyrate were evaluated.

[9] = system: Akkermansia
[10] = Melphalan therapy in mice: intestinal microbiome and colonic mucus layer; format: in vivo; settings: 6 days following melphalan 20 mg/kg, C57BL/6 mice
Source text: Myeloablative RT, previously a foundational pillar that made HCT possible, has been progressively replaced by chemotherapy, particularly alkylating agents (11). […] An expansion of Bacteroides was also seen, though this was not statistically significant after correction for multiple comparisons, and was accompanied by a loss of Muribaculaceae, similar to that following RT.

[11] = acidified drinking water (pH3), one week dietary restriction
[12] = drinking water at neutral pH, dietary restriction

SMILES	colonic mucus layer thickness [2]	colonic tissue levels of IL-1b, CCL2, CCL7, IL-22, CXCL1 and CXCL10 [2]	ocular surface temperatures (hypothermia) [2]	outgrowth of Akkermansia [2]	mucin glycan utilization by A. muciniphila [8]	expansion of Akkermansia [9, 11]	fecal / colonic luminal pH [9, 11]	thinning of the colonic mucus layer [9, 11]	also measured
CC[C@H]1OC(=O)[C@H](C)[C@@H](O[C@H]2C[C@@](C)(OC)[C@@H](O)[C@H](C)O2)[C@H](C)[C@@H](O[C@@H]2O[C@H](C)C[C@H](N(C)C)[C@H]2O)[C@](C)(O)C[C@@H](C)CN(C)[C@H](C)[C@@H](O)[C@]1(C)O [azithromycin]	effective in preserving colonic mucus layer thickness	reduced	less depressed at day 6	very effective at preventing outgrowth of Akkermansia	–	–	–	–	bacterial populations depleted [1]: depleted Akkermansia as well as some gram positive populations; colonic mucus layer thinning during dietary restriction [1]: prevented thinning of the colonic mucus layer
O=C[C@H](O)[C@@H](O)[C@H](O)CO [xylose, D-(+)-xylose]	–	–	–	–	–	–	–	–	mucin utilization by BT [3]: significantly suppressed; expression of GH2 β-galactosidase by murine BT [4]: not significantly impacted; expression of GH33 sialidase and GH29 α-L-fucosidase by murine BT [4]: suppressed; colonic mucus thickness [5]: prevented thinning of the colonic mucus thickness; growth of BT in carbohydrate-poor media [6]: augmented; relative abundances of BT [7]: not significantly different
CCC(=O)[O-].[Na+] [propionate, sodium propionate]	effective in preserving colonic mucus layer thickness	prevented elevation of all of these cytokines, with the exception of CXCL1	less depressed at day 6	not effective	inhibitory effects on mucin glycan utilization	mitigated expansion of Akkermansia	reduced fecal pH	prevented thinning of the mucus layer	growth of A. muciniphila ([8]; higher levels, OD 600): delays in growth; expansion of Akkermansia [9, 12]: trended towards preventing Akkermansia expansion; thinning of the colonic mucus layer [9, 12]: sufficient to prevent mucus thinning
N[C@@H](Cc1ccc(N(CCCl)CCCl)cc1)C(=O)O [melphalan]	–	–	–	–	–	–	–	–	changes in the intestinal microbiome [10]: increase in the abundance of Akkermansia; colonic mucus layer thickness [10]: significantly thinner
CC(=O)[O-].[Na+] [acetate, sodium acetate]	–	–	–	–	negligible effects on A. muciniphila behavior	no such preventative effect	lowering the pH in the colonic lumen	no such preventative effect	–
CCCC(=O)[O-].[Na+] [butyrate, sodium butyrate]	–	–	–	–	negligible effects on A. muciniphila behavior	–	–	–	–
